Target: T1, human PAH with the R408W mutation (Homo sapiens, UniProt P00439, R408W)
T1 construct: expressed in transfected cells
T1 sequence (P00439 1-452 R408W): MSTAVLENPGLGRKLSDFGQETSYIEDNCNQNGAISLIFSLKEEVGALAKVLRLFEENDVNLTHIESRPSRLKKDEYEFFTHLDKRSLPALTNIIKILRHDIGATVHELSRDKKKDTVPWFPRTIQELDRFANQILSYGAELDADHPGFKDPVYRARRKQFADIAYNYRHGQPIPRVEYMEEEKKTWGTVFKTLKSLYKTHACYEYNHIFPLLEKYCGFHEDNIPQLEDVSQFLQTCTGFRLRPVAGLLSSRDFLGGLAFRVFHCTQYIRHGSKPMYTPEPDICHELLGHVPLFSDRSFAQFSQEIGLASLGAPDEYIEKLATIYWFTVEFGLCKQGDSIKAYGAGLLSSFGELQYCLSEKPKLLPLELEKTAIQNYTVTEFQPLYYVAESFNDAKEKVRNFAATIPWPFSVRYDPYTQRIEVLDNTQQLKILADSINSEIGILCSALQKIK
Test: Cell Based Phenylalanine Flux Assay
Conditions: A375 cells expressing human R408W PAH; 24 hrs compound incubation; 13C-Tyrosine by LC-MS; average where tested multiple times; read-out: AC50

Row | AC50 [nM] | SMILES
1 | < 500 | CCn1ncnc1C(=O)N1CCc2[nH]cnc2[C@@H]1c1nc2ccccc2s1 [Example 1957, (R)-(4-(benzo[d]thiazol-2-yl)-6,7-dihydro-1H-imidazo[4,5-c]pyridin-5(4H)-yl)(1-ethyl-1H-1,2,4-triazol-5-yl)methanone]
2 | < 500 | CCn1ncnc1C(=O)N1CCc2[nH]cnc2[C@H]1c1nc2ccccc2s1 [Example 1958]
3 | < 500 | CCn1ncnc1C(=O)N1CCc2[nH]cnc2[C@H]1c1nc2c(F)cccc2s1 [Example 1959]
4 | 1000 to 5000 | CCn1ncnc1C(=O)N1CCc2[nH]cnc2[C@@H]1c1nc2c(F)cccc2s1 [Example 1960, (R)-(1-ethyl-1H-1,2,4-triazol-5-yl)(4-(4-fluorobenzo[d]thiazol-2-yl)-6,7-dihydro-1H-imidazo[4,5-c]pyridin-5(4H)-yl)methanone]
5 | < 500 | C[C@H](O)c1nc(C(F)F)c(C(=O)N2CCc3[nH]cnc3[C@H]2c2nc3c(F)cccc3s2)o1 [Example 1961, (4-(difluoromethyl)-2-((S)-1-hydroxyethyl)oxazol-5-yl) ((S)-4-(4-fluorobenzo[d]thiazol-2-yl)-6,7-dihydro-1H-imidazo[4,5-c]pyridin-5(4H)-yl)methanone]
6 | 1000 to 5000 | C[C@H](O)c1nc(C(F)F)c(C(=O)N2CCc3[nH]cnc3[C@@H]2c2nc3c(F)cccc3s2)o1 [Example 1962, (4-(difluoromethyl)-2-((S)-1-hydroxyethyl)oxazol-5-yl)((R)-4-(4-fluorobenzo[d]thiazol-2-yl)-6,7-dihydro-1H-imidazo[4,5-c]pyridin-5(4H)-yl)methanone]
7 | < 500 | CC(C)(O)c1nc(Cl)c(C(=O)N2CCc3[nH]cnc3[C@H]2c2nc3ccccc3s2)o1 [Example 1963]
8 | 1000 to 5000 | CC(C)(O)c1nc(Cl)c(C(=O)N2CCc3[nH]cnc3[C@@H]2c2nc3ccccc3s2)o1 [Example 1964, (R)-(4-(benzo[d]thiazol-2-yl)-6,7-dihydro-1H-imidazo[4,5-c]pyridin-5(4H)-yl)(4-chloro-2-(2-hydroxypropan-2-yl)oxazol-5-yl)methanone]
9 | 500 to 1000 | O=C(c1nnc(-c2c[nH]nc2C(F)(F)F)o1)N1CCc2[nH]cnc2[C@H]1c1nc2ccccc2s1 [Example 1965]
10 | 1000 to 5000 | O=C(c1nnc(-c2c[nH]nc2C(F)(F)F)o1)N1CCc2[nH]cnc2[C@@H]1c1nc2ccccc2s1 [Example 1966, (R)-(4-(benzo[d]thiazol-2-yl)-6,7-dihydro-1H-imidazo[4,5-c]pyridin-5(4H)-yl)(5-(3-(trifluoromethyl)-1H-pyrazol-4-yl)-1,3,4-oxadiazol-2-yl)methanone]
11 | < 500 | O=C(c1cnn(CC(F)(F)F)c1Cl)N1CCc2[nH]cnc2[C@H]1c1nc2c(F)cccc2s1 [Example 1967, (S)-(5-chloro-1-(2,2,2-trifluoroethyl)-1H-pyrazol-4-yl)(4-(4-fluorobenzo[d]thiazol-2-yl)-6,7-dihydro-1H-imidazo[4,5-c]pyridin-5(4H)-yl)methanone]
12 | 1000 to 5000 | O=C(c1cnn(CC(F)(F)F)c1Cl)N1CCc2[nH]cnc2[C@@H]1c1nc2c(F)cccc2s1 [Example 1968, (R)-(5-chloro-1-(2,2,2-trifluoroethyl)-1H-pyrazol-4-yl)(4-(4-fluorobenzo[d]thiazol-2-yl)-6,7-dihydro-1H-imidazo[4,5-c]pyridin-5(4H)-yl)methanone]
13 | 500 to 1000 | O=C(c1cnn(C2CC2)c1Cl)N1CCc2[nH]cnc2[C@H]1c1nc2c(F)cccc2s1 [Example 1969]
14 | 1000 to 5000 | O=C(c1cnn(C2CC2)c1Cl)N1CCc2[nH]cnc2[C@@H]1c1nc2c(F)cccc2s1 [Example 1970, (R)-(5-chloro-1-cyclopropyl-1H-pyrazol-4-yl)(4-(4-fluorobenzo[d]thiazol-2-yl)-6,7-dihydro-1H-imidazo[4,5-c]pyridin-5(4H)-yl)methanone]
15 | 500 to 1000 | O=C(c1cnn(CC2CC2)c1Cl)N1CCc2[nH]cnc2[C@H]1c1nc2c(F)cccc2s1 [Example 1971, (S)-(5-chloro-1-(cyclopropylmethyl)-1H-pyrazol-4-yl)(4-(4-fluorobenzo[d]thiazol-2-yl)-6,7-dihydro-1H-imidazo[4,5-c]pyridin-5(4H)-yl)methanone]
16 | 1000 to 5000 | O=C(c1cnn(CC2CC2)c1Cl)N1CCc2[nH]cnc2[C@@H]1c1nc2c(F)cccc2s1 [Example 1972, (R)-(5-chloro-1-(cyclopropylmethyl)-1H-pyrazol-4-yl)(4-(4-fluorobenzo[d]thiazol-2-yl)-6,7-dihydro-1H-imidazo[4,5-c]pyridin-5(4H)-yl)methanone]
17 | < 500 | O=C(c1cnn(CC(F)(F)F)c1C(F)F)N1CCc2[nH]cnc2[C@H]1c1nc2ccccc2s1 [Example 1973]
18 | 1000 to 5000 | O=C(c1cnn(CC(F)(F)F)c1C(F)F)N1CCc2[nH]cnc2[C@@H]1c1nc2ccccc2s1 [Example 1974, (R)-(4-(benzo[d]thiazol-2-yl)-6,7-dihydro-1H-imidazo[4,5-c]pyridin-5(4H)-yl)(5-(difluoromethyl)-1-(2,2,2-trifluoroethyl)-1H-pyrazol-4-yl)methanone]
19 | 1000 to 5000 | O=C(c1cnn(CC(F)(F)F)c1C(F)F)N1CCc2[nH]cnc2[C@H]1c1nc2c(F)cccc2s1 [Example 1975]
20 | 500 to 1000 | O=C(c1cnn(CC(F)(F)F)c1C(F)F)N1CCc2[nH]cnc2[C@@H]1c1nc2c(F)cccc2s1 [Example 1976, (R)-(5-(difluoromethyl)-1-(2,2,2-trifluoroethyl)-1H-pyrazol-4-yl)(4-(4-fluorobenzo[d]thiazol-2-yl)-6,7-dihydro-1H-imidazo[4,5-c]pyridin-5(4H)-yl)methanone]
21 | 1000 to 5000 | Cn1nc(Br)nc1C(=O)N1CCc2[nH]cnc2[C@H]1c1nc2ccccc2s1 [Example 1977]
22 | 1000 to 5000 | Cn1nc(Br)nc1C(=O)N1CCc2[nH]cnc2[C@@H]1c1nc2ccccc2s1 [Example 1978, (R)-(4-(benzo[d]thiazol-2-yl)-6,7-dihydro-1H-imidazo[4,5-c]pyridin-5(4H)-yl)(3-bromo-1-methyl-1H-1,2,4-triazol-5-yl)methanone]
23 | 500 to 1000 | C[C@@H](O)c1nc(C(F)F)c(C(=O)N2CCc3[nH]cnc3[C@@H]2c2nc3c(F)cccc3s2)o1 [Example 1979, (4-(difluoromethyl)-2-((R)-1-hydroxyethyl)oxazol-5-yl)((R)-4-(4-fluorobenzo[d]thiazol-2-yl)-6,7-dihydro-1H-imidazo[4,5-c]pyridin-5(4H)-yl)methanone]
24 | < 500 | C[C@@H](O)c1nc(C(F)F)c(C(=O)N2CCc3[nH]cnc3[C@H]2c2nc3c(F)cccc3s2)o1 [Example 1980, (4-(difluoromethyl)-2-((R)-1-hydroxyethyl)oxazol-5-yl) ((S)-4-(4-fluorobenzo[d]thiazol-2-yl)-6,7-dihydro-1H-imidazo[4,5-c]pyridin-5(4H)-yl)methanone]
25 | < 500 | O=C(c1cn(CC(F)F)nc1Cl)N1CCc2[nH]cnc2[C@H]1c1nc2c(F)cccc2s1 [Example 1981, (S)-(3-chloro-1-(2,2-difluoroethyl)-1H-pyrazol-4-yl)(4-(4-fluorobenzo[d]thiazol-2-yl)-6,7-dihydro-1H-imidazo[4,5-c]pyridin-5(4H)-yl)methanone]
26 | 1000 to 5000 | O=C(c1cn(CC(F)F)nc1Cl)N1CCc2[nH]cnc2[C@@H]1c1nc2c(F)cccc2s1 [Example 1982, (R)-(3-chloro-1-(2,2-difluoroethyl)-1H-pyrazol-4-yl)(4-(4-fluorobenzo[d]thiazol-2-yl)-6,7-dihydro-1H-imidazo[4,5-c]pyridin-5(4H)-yl)methanone]

— patent US20250171438A1 (Agios Pharmaceuticals, Inc., priority 2022, published 2025)
